Source: patent publication US11039997B2, “Cosmetic, dermatic, protective compositions comprising phospholipids, lecithins with peptides and at least one acetylating compound” (priority 2005, dated 2021)
One block for each molecule: values may come before it.

How the values were obtained:
[1] = target: T1, paf receptors of formaldehyde-treated platelets (Homo sapiens, UniProt P25105); experiment: Binding of [3H]alkyl-paf to formaldehyde-fixed platelets (FIGS. 6 and 7); settings: 30 min; for inhibition of bound [3H]alkyl-paf to stiffened platelets: FIG. 7, [3H]alkyl-paf 0.65 nM, 20° C., n=4
T1 construct: endogenous in cells; host or cells: washed platelets fixed with 1% formaldehyde for 30 min
Experimental: An extract of whole blood, namely “biological paf” replaces [^3H]alkyl-paf out of the binding and bind to similar alkyl receptors. This competitive inhibition is paralleled with similar effects of synthetic paf and with Ginkgoloides wherein WEB 2086 is used here as the known guiding substance for chlorobenzo(dia)zepines.
“Biological paf” is used here for the first time as non-separated ethanol extract of whole blood (without HPLC). This dry extract is diluted before it is quantified using aggregation of rabbit platelets in the presence of aspirin and CP/CPK. The novel methods allow for the first time testings without albumin so that alkyl ligands with lower cell affinity compared to albumin can bind in a detectable manner. For example, alkyl lipids without the choline group (alkyl-LPA) bind otherwise in deeper regions of the membranes of untreated cells and/or are rapidly incorporated into free albumin. In addition, the method is independent from calcium so that also calcium-independent alkyl ligands can be inhibited here (e.g. lyso paf). The clinical success against alkyl ligands is thus supported and can be carried out by skilled persons.
The FIGS. 5 to 7 thus show the novel screening procedure solves a novel technical problem, namely the variety of damaging alkyl lipids. The quantification is easier using fixed cells as the difficult acetylation step of alkyl lipids is removed which is required for calcium dependent quantification methods. Using fixed cells, cell lines also labelled antibodies and/or soluble transport-binding proteins can be tested and produced.
(§1) FIGS. 5 to 7 investigated for the first time binding of [^3H]alkyl-paf or [^3H]acetyl group after treatment with formaldehyde (1%, 30 min) comparing different temperatures, indicated concentrations and said Ginkgoloides. The allosteric binding of [^3H]alkyl groups was reached only at 20° C. while [^3H]acetyl groups bound at 4° C. excluding allosteric effects.
Platelets were treated with formaldehyde (1%, 30 min, n=6). Values are expressed as bound [^3H]alkyl-paf to […]. […]

[2] = system: metabolic syndrome mediated by LA-paf; settings: Wu et al. J. Int. Med. 246, 1999; cited from earlier work
[3] = system: washed aspirinated platelets; experiment: Binding of [3H]alkyl-paf / [3H]alkyl-lyso paf to washed aspirinated platelets and formation of AAGPC, LA-paf (FIG. 2); format: cell-based, human; settings: FIG. 2C; normolipidemic platelets, [3H]-alkyl-lyso paf 0.065 nM, 40 nM antagonist, 0.25% BSA
Experimental: These women with “OMIH”-syndrome show overweight (aged 34±11 years, BMI: […]), raised LDL (167±15 mg/dl, HDL: 76±41 mg/dl) and triglyceride levels (206±27 mg/dl) borderline hypertension (125±13/88±10 mmHg) and disturbed glucose tolerance (1 h: 170±61 mg/dl).
Ginkgoloides with free albumin (BSA) inhibited here the binding of [^3H]alkyl-paf to “OMIH”-platelets after three washes (FIG. 2 A+B). […] Normolipidemic platelets do nearly not incorporate [^3H]alkyl-paf or [^3H]alkyl-lyso paf and form nearly no AAGPC and LA-paf in the presence of Ginkgoloides and free albumin (FIG. 2C).
AAGPC and LA-paf are chemically alkyl-acyl-sn-glycero-phosphocholines. […] Values are fmol per 10^8 platelets and are means±1 S.D. from three different experiments as described (R. Korth et al. Chem. Phys. Lipids 70(1994), 109-119).

human neutrophils = experiment: Formation of labeled AAGPC+LA-paf by neutrophils (FIG. 4); format: cell-based; settings: 0.25% BSA
Experimental: The non-differentiated washed blood leukocytes incorporate here [^3H]alkyl-paf with intermediate of [^3H]alkyl-lyso paf and form alkyl lipids (AAGPC+LA paf) in a saturated manner (A: 0.65 nM vs. B: 6.5 nM) wherein unlabelled paf fails to replace (B, 5 nM). Thus, at least one non-specific transport protein is indicated (e.g. acetylhydrolase) on undifferentiated cells. The less differentiated cells are invented here as a model for monocytes, endothelial cells, glia cells, cartilage cells, adipocytes, endogenous stem cells etc. The acetylhydrolases on plasma membranes of leukocytes remove alkyl lipids and these cells are then pre-activated, differentiated and ready to emigrate. Non-specific antagonists e.g. free albumin protect against alkyl ligands and compete with cells for binding of alkyl lipids. The fatty decline of cells in the entire organisms is clinically healed here. […]
Washed intact cells were incubated with normal or excess concentrations of [^3H]-alkyl-paf forming then the stable amount of AAGPC & LA (A: 0.65 nM or B: 6.5 nM). […] Values are expressed as percent of added label (2.5×10^6 cells/500μl, 0.25% BSA, n=3, see R.-M. Korth, Int. Arch. All. Imm. 113, p 460-464, 1997). […]

[4] = target: T1, paf receptors of formaldehyde-treated platelets; experiment: Binding of [3H]acetyl paf to formaldehyde-fixed platelets at 4° C. (FIG. 5); settings: unlabeled paf 50 nM, [3H]acetyl paf 0.65 nM or 0.065 nM
Experimental: (FIG. 5D versus 5C). The allosteric alkyl effects are inhibited by stiffening of the membrane so that the scavenger-like allosteric configuration change of cells is shown as mentioned before. In contrast, the [^3H]acetyl group of paf binds at 4° C. to fixed cells treated prior to the last wash with formaldehyde to be subsequently cooled and stiffened (1%, 30 min, A+B). The acetyl group binds and covers paf receptors without allosteric upregulation so that acetylating compounds are using this effect in accordance with the invention.
as §1
Unlabeled paf (50 nM) competed showing specific binding of [^3H]acetyl paf. […] Next, [^3H]alkyl-paf failed binding to stiffened platelets at 4° C. showing moderate specific binding only at 20° C. (C: 0.65 nM, 30 min, 20° C.). […] Values are expressed as bound labelled ligands to 10^8 platelets. Platelets were separated with vacuum filtration and means±1 S.D. are from three experiments.

intact human platelets = experiment: Lipoprotein-triggered catabolism of [3H]alkyl-paf and formation of AAGPC and LA-paf by intact platelets (FIG. 3); format: cell-based; settings: FIG. 3 C+D; [3H]alkyl-paf 0.65 nM; apo B 0.1 mg/ml, VLDL 80 μg/ml
Experimental: Only LDL but not ApoB and not VLDL overcome the protection by albumin (FIG. 3E versus 3D). […] In the presence (A+C) or absence (B) of washed platelets nearly no AAGPC with derivatives and products is formed. The acetylhydrolases form lyso paf and LDL, of apoB and VLDL also form lyso paf whereby the uptake of lyso paf is triggered by LDL.
[^3H]alkyl-lyso paf was stable in the albumin buffer as well (B: 0.25% BSA, 30 min, 20° C.). […] Overall, purified LDL-particles rather than isolated apoB trigger uptake and formation of AAGPC and/or LA-paf. Values are expressed as percent of added label bound to platelets. Cells were separated using vacuum filtration as described (R. Korth et al. Chem. Phys. Lipids 70, 109-119, 1994). Values were expressed as percent of added label. Values are means±1.S.D. of three different experiments.

T1 sequence (P25105 whole entry): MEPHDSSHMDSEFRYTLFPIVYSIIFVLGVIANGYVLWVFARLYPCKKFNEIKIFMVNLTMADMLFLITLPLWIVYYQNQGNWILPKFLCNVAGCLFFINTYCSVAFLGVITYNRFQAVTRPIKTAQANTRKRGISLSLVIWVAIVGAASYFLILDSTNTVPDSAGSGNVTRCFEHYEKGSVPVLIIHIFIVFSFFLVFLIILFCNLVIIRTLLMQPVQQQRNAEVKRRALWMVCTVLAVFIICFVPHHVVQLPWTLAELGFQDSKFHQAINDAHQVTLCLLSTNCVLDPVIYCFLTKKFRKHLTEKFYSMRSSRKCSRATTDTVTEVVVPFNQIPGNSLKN

- inhibition of bound [3H]alkyl-paf ([1]; FIG. 6, platelets treated with formaldehyde 1%, 30 min 20° C.): concentration-dependent inhibition
Molecule: CC1C(=O)OC2C(O)C34C5CC(C(C)(C)C)C36C(OC(=O)C6O)OC4(C(=O)O5)C12O (stereo not drawn) [BN 52021]

- inhibition of bound [3H]alkyl-paf to stiffened platelets [1]: inhibited
Molecule: Cc1nnc2n1-c1sc(CCC(=O)N3CCOCC3)cc1C(c1ccccc1Cl)=NC2 [WEB 2086]
- treatment of metabolic syndrome with thickening of the intima and borderline hypertension [2]: successfully treated
- formation of cellular metabolites (AAGPC, LA-paf) from [3H]-alkyl-lyso paf [3]: without relevant formation of indicated cellular metabolites

Molecule: CCCCCCCCCCCCCCCCOC[C@H](COP(=O)([O-])OCC[N+](C)(C)C)OC(C)=O [synthetic paf]
- inhibition of bound [3H]alkyl-paf to stiffened platelets [1]: inhibited at low concentrations
- competition with formation of AAGPC/LA-paf (human neutrophils; unlabeled paf 5 nM, [3H]-alkyl-paf 0.65 nM or 6.5 nM, n=3): did not compete
- competition with [3H]acetyl paf binding [4]: competed

Molecule: ApoB: isolated apo B (Sigma Chemical)
- formation of lyso paf and cellular uptake (intact human platelets): form lyso paf without cellular uptake

Molecule: Purified albumin: free, delipidated albumin (BSA), representative non-specific antagonist
- protection of intact cells as non-specific antagonist (human neutrophils): protected
